“And” between values parts separate entries of the source, which are not always exact repeats. Equal values may be shown once. Inconclusive results and toxic doses are left out. Rule as the data show it: active = T/C of 150% or more; inactive = T/C below 125%.
Tested on: L1210 leukemia ip in BDF1 mice, survival T/C
Assay: NCI In Vivo Anticancer Drug Screen. Data for tumor model L1210 Leukemia (intraperitoneal) in B6D2F1 (BDF1) mice
Conditions: higher = longer survival
Outline: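 Tumor was transplanted into mice, which were then dosed with test compound or vehicle alone. Survival was recorded for each group, and the treated figure was expressed relative to the control figure.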

Measured: T/C

O=P1(N(CCCl)CCCl)NCCCO1 (configuration not stated)
inactive: endpoint: mean survival time, dose: 0.9 mg/kg/injection, schedule: Q01DX009 (ip), vehicle: saline 99 % of control and 100 % of control | endpoint: mean survival time, dose: 1.0 mg/kg/injection, schedule: Q01DX Z (ip), vehicle: methylcellulose (MC) 93 % of control | endpoint: mean survival time, dose: 1.0 mg/kg/injection, schedule: Q01DX Z (oral), vehicle: saline 93 % of control | endpoint: mean survival time, dose: 1.0 mg/kg/injection, schedule: Q07DX Z (ip), vehicle: saline 103 % of control | endpoint: mean survival time, dose: 1.8 mg/kg/injection, schedule: Q01DX009 (ip), vehicle: saline 94 % of control | endpoint: mean survival time, dose: 2.5 mg/kg/injection, schedule: Q07DX Z (ip), vehicle: saline 97 % of control | endpoint: mean survival time, dose: 3.2 mg/kg/injection, schedule: Q01DX001 (ip), vehicle: saline 95 % of control | endpoint: mean survival time, dose: 3.5 mg/kg/injection, schedule: Q01DX009 (ip), vehicle: saline 100 % of control and 104 % of control | endpoint: mean survival time, dose: 3.5 mg/kg/injection, schedule: Q03HX032 (ip), vehicle: saline 110 % of control | endpoint: mean survival time, dose: 3.5 mg/kg/injection, schedule: Q## X032 (ip), vehicle: saline 110 % of control | endpoint: mean survival time, dose: 4.3 mg/kg/injection, schedule: Q01DX Z (ip), vehicle: saline 98 % of control | endpoint: mean survival time, dose: 5.0 mg/kg/injection, schedule: Q01DX Z (ip), vehicle: methylcellulose (MC) 105 % of control | endpoint: mean survival time, dose: 5.0 mg/kg/injection, schedule: Q07DX Z (ip), vehicle: saline 97 % of control | endpoint: mean survival time, dose: 5.36 mg/kg/injection, schedule: Q03HX032 (ip), vehicle: saline 102 % of control | endpoint: mean survival time, dose: 5.36 mg/kg/injection, schedule: Q## X032 (ip), vehicle: saline 102 % of control | endpoint: mean survival time, dose: 5.6 mg/kg/injection, schedule: Q13HX018 (ip), vehicle: saline 98 % of control | endpoint: mean survival time, dose: 6.0 mg/kg/injection, schedule: Q01DX Z (oral), vehicle: saline 108 % of control | endpoint: mean survival time, dose: 6.0 mg/kg/injection, schedule: Q03DX Z (ip), vehicle: saline 109 % of control | endpoint: mean survival time, dose: 6.25 mg/kg/injection, schedule: Q01DX009 (ip), vehicle: saline 104 % of control and 107 % of control | endpoint: mean survival time, dose: 6.25 mg/kg/injection, schedule: Q01DX Z (ip), vehicle: saline 102 % of control | endpoint: mean survival time, dose: 6.3 mg/kg/injection, schedule: Q01DX001 (ip), vehicle: saline 94 % of control | endpoint: mean survival time, dose: 7.13 mg/kg/injection, schedule: Q01DX Z (ip), vehicle: carboxymethylcellulose (CMC) 109 % of control | endpoint: mean survival time, dose: 7.5 mg/kg/injection, schedule: Q01DX009 (ip), vehicle: saline 110 % of control | endpoint: mean survival time, dose: 7.5 mg/kg/injection, schedule: Q01DX Z (ip), vehicle: saline 110 % of control | endpoint: mean survival time, dose: 7.5 mg/kg/injection, schedule: Q04DX002 (ip), vehicle: saline 94 % of control and 111 % of control | endpoint: mean survival time, dose: 8.5 mg/kg/injection, schedule: Q01DX Z (ip), vehicle: saline 110 % of control | endpoint: mean survival time, dose: 9.4 mg/kg/injection, schedule: Q01DX001 (ip), vehicle: water 103 % of control | endpoint: mean survival time, dose: 9.9 mg/kg/injection, schedule: Q01DX010 (ip), vehicle: saline 104 % of control | endpoint: mean survival time, dose: 10.0 mg/kg/injection, schedule: Q01DX Z (ip), vehicle: methylcellulose (MC) 104 % of control | endpoint: mean survival time, dose: 10.0 mg/kg/injection, schedule: Q07DX Z (ip), vehicle: saline 102 % of control | endpoint: mean survival time, dose: 11.25 mg/kg/injection, schedule: Q01DX001 (ip), vehicle: saline 98 % of control and 105 % of control | endpoint: mean survival time, dose: 11.3 mg/kg/injection, schedule: Q01DX Z (ip), vehicle: saline 113 % of control | endpoint: mean survival time, dose: 11.3 mg/kg/injection, schedule: Q## X Z (ip), vehicle: saline 110 % of control | endpoint: mean survival time, dose: 12.0 mg/kg/injection, schedule: Q01DX001 (ip), vehicle: saline 94 % of control and 111 % of control | endpoint: mean survival time, dose: 12.0 mg/kg/injection, schedule: Q01DX Z (im), vehicle: saline 97 % of control | endpoint: mean survival time, dose: 12.0 mg/kg/injection, schedule: Q01DX Z (oral), vehicle: saline 109 % of control | endpoint: mean survival time, dose: 12.0 mg/kg/injection, schedule: Q02DX010 (ip), vehicle: saline 111 % of control | endpoint: mean survival time, dose: 12.0 mg/kg/injection, schedule: Q03DX Z (ip), vehicle: saline 107 % of control | endpoint: mean survival time, dose: 12.5 mg/kg/injection, schedule: Q01DX001 (ip), vehicle: saline 96 % of control | endpoint: mean survival time, dose: 12.5 mg/kg/injection, schedule: Q01DX009 (ip), vehicle: saline 110 % of control | endpoint: mean survival time, dose: 12.5 mg/kg/injection, schedule: Q01DX Z (ip), vehicle: carboxymethylcellulose (CMC) 101 % of control | endpoint: mean survival time, dose: 12.6 mg/kg/injection, schedule: Q01DX009 (ip), vehicle: saline 110 % of control | endpoint: mean survival time, dose: 12.6 mg/kg/injection, schedule: Q01DX Z (ip), vehicle: saline 110 % of control | endpoint: mean survival time, dose: 15.0 mg/kg/injection, schedule: Q01DX Z (ip), vehicle: methylcellulose (MC) 100 % of control | endpoint: mean survival time, dose: 15.0 mg/kg/injection, schedule: Q04DX002 (ip), vehicle: saline 103 % of control | endpoint: mean survival time, dose: 15.0 mg/kg/injection, schedule: Q07DX Z (ip), vehicle: saline 107 % of control | endpoint: mean survival time, dose: 18.75 mg/kg/injection, schedule: Q01DX001 (ip), vehicle: water 103 % of control | endpoint: mean survival time, dose: 18.76 mg/kg/injection, schedule: Q02DX010 (ip), vehicle: saline 112 % of control | endpoint: mean survival time, dose: 19.0 mg/kg/injection, schedule: Q02DX010 (ip), vehicle: saline 110 % of control | endpoint: mean survival time, dose: 20.0 mg/kg/injection, schedule: Q01DX Z (ip), vehicle: methylcellulose (MC) 98 % of control | endpoint: mean survival time, dose: 22.5 mg/kg/injection, schedule: Q01DX001 (ip), vehicle: saline 106 % of control and 109 % of control | endpoint: mean survival time, dose: 22.5 mg/kg/injection, schedule: Q## X Z (ip), vehicle: saline 105 % of control | endpoint: mean survival time, dose: 25.0 mg/kg/injection, schedule: Q01DX006 (iv), vehicle: saline 103 % of control | endpoint: mean survival time, dose: 25.0 mg/kg/injection, schedule: Q01DX Z (im), vehicle: saline 113 % of control | endpoint: mean survival time, dose: 25.0 mg/kg/injection, schedule: Q04DX003 (ip), vehicle: saline 104 % of control | endpoint: mean survival time, dose: 28.5 mg/kg/injection, schedule: Q01DX Z (ip), vehicle: carboxymethylcellulose (CMC) 114 % of control | endpoint: mean survival time, dose: 37.0 mg/kg/injection, schedule: Q01DX001 (ip), vehicle: water 114 % of control | endpoint: mean survival time, dose: 37.5 mg/kg/injection, schedule: Q01DX001 (ip), vehicle: saline with Tween-80 112 % of control | endpoint: mean survival time, dose: 37.5 mg/kg/injection, schedule: Q01DX001 (ip), vehicle: water 114 % of control | endpoint: mean survival time, dose: 45.0 mg/kg/injection, schedule: Q13HX018 (ip), vehicle: saline 107 % of control | endpoint: mean survival time, dose: 45.0 mg/kg/injection, schedule: Q## X Z (ip), vehicle: saline 105 % of control | endpoint: mean survival time, dose: 50.0 mg/kg/injection, schedule: Q01DX Z (ip), vehicle: methylcellulose (MC) 112 % of control | endpoint: mean survival time, dose: 67.5 mg/kg/injection, schedule: Q## X006 (ip), vehicle: saline 100 % of control | endpoint: mean survival time, dose: 86.0 mg/kg/injection, schedule: Q01DX001 (ip), vehicle: saline 112 % of control | endpoint: mean survival time, dose: 90.0 mg/kg/injection, schedule: Q01DX009 (ip), vehicle: saline 107 % of control | endpoint: mean survival time, dose: 90.0 mg/kg/injection, schedule: Q01DX Z (ip), vehicle: saline 98 % of control | endpoint: mean survival time, dose: 90.0 mg/kg/injection, schedule: Q02DX010 (ip), vehicle: carboxymethylcellulose (CMC) 105 % of control | endpoint: mean survival time, dose: 97.0 mg/kg/injection, schedule: Q02DX010 (ip), vehicle: carboxymethylcellulose (CMC) 107 % of control | endpoint: mean survival time, dose: 97.0 mg/kg/injection, schedule: Q02DX010 (ip), vehicle: other 98 % of control | endpoint: mean survival time, dose: 100.0 mg/kg/injection, schedule: Q01DX Z (ip), vehicle: methylcellulose (MC) 108 % of control | endpoint: mean survival time, dose: 100.0 mg/kg/injection, schedule: Q01DX Z (oral), vehicle: saline 107 % of control | endpoint: mean survival time, dose: 135.0 mg/kg/injection, schedule: Q02DX010 (ip), vehicle: saline 111 % of control | endpoint: mean survival time, dose: 180.0 mg/kg/injection, schedule: Q01DX009 (ip), vehicle: saline 96 % of control | endpoint: mean survival time, dose: 180.0 mg/kg/injection, schedule: Q01DX010 (ip), vehicle: saline 102 % of control | endpoint: mean survival time, dose: 200.0 mg/kg/injection, schedule: Q01DX009 (ip), vehicle: saline 93 % of control | endpoint: mean survival time, dose: 200.0 mg/kg/injection, schedule: Q01DX Z (ip), vehicle: saline 100 % of control | endpoint: mean survival time, dose: 320.0 mg/kg/injection, schedule: Q04DX003 (ip), vehicle: saline 111 % of control | endpoint: mean survival time, dose: 360.0 mg/kg/injection, schedule: Q01DX001 (ip), vehicle: saline 113 % of control | endpoint: mean survival time, dose: 400.0 mg/kg/injection, schedule: Q04DX002 (ip), vehicle: saline 100 % of control | endpoint: mean survival time, dose: 468.0 mg/kg/injection, schedule: Q04DX002 (ip), vehicle: saline 111 % of control | endpoint: mean survival time, dose: 900.0 mg/kg/injection, schedule: Q01DX001 (ip), vehicle: saline 102 % of control | endpoint: median survival time, dose: 5.0 mg/kg/injection, schedule: Q01DX009 (ip), vehicle: saline 101 % of control and 110 % of control | endpoint: median survival time, dose: 10.0 mg/kg/injection, schedule: Q01DX001 (ip), vehicle: saline 99 % of control and 100 % of control | endpoint: median survival time, dose: 20.0 mg/kg/injection, schedule: Q01DX001 (ip), vehicle: saline 106 % of control | endpoint: median survival time, dose: 50.0 mg/kg/injection, schedule: Q08DX003 (ip), vehicle: saline 95 % of control and 97 % of control | endpoint: median survival time, dose: 90.0 mg/kg/injection, schedule: Q01DX009 (ip), vehicle: saline 105 % of control and 112 % of control | endpoint: median survival time, dose: 180.0 mg/kg/injection, schedule: Q01DX009 (ip), vehicle: saline 93 % of control

Source: PubChem BioAssay AID248 (DTP/NCI, 2004)
